Laboratory results published in publication PMC10593844, “Structure-function analyses reveal key molecular determinants of HIV-1 CRF01_AE resistance to the entry inhibitor temsavir” (Nature Communications, 2023).
Values joined by “and” are separate entries in the source; they are usually repeats but may differ in a detail not shown here. Equal values may be shown once.

Test system: HIV-1JR-FL Env S375F on HEK293T cells
Type: binding
Settings: JRFL S375F; temsavir 10 µM; listed as TMR

Compound: COc1cnc(-n2cnc(C)n2)c2[nH]cc(C(=O)C(=O)N3CCN(C(=O)c4ccccc4)CC3)c12 [Temsavir, temsavir]
- sCD4 binding (+TMR) - Fold over DMSO: 0.9879 and 0.8506 and 0.9038
